Assay [1] has as its target D(1A) dopamine receptor (Rattus norvegicus) (UniProt P18901).
In assay [2] the target is D(2) dopamine receptor (Homo sapiens) (UniProt P14416).
Description: Tested for binding affinity towards D2 receptor labelled by [3H]- spiperone as radioligand
For another assay, the species on record is Rattus norvegicus. Kind of assay: Tested effective dose for maximal stimulation of adenylate cyclase in rat striatal membrane. To be noted: Striatum. The format is functional.
In assay [3] the target is D(1A) dopamine receptor (Rattus norvegicus) (UniProt P18901). Kind of assay: Tested for its affinity towards Dopamine receptor D1 in rat striatal membrane. Format: cell membranes. As to conditions: Striatum.
D(1A) dopamine receptor (Rattus norvegicus), sequence (P18901 whole entry): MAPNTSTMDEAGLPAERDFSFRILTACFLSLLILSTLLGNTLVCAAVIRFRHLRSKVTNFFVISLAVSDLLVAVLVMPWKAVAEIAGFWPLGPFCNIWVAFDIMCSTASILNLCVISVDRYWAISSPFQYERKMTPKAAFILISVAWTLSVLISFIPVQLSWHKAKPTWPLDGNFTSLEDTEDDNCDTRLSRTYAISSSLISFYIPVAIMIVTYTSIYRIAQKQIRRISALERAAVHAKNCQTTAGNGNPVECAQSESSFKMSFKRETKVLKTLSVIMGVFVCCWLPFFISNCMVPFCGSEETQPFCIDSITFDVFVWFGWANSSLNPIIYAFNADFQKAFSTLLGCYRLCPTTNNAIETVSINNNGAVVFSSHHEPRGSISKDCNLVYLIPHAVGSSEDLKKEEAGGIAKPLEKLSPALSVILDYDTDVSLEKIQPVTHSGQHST

Each structure is given as a SMILES string.

D(2) dopamine receptor (Homo sapiens), sequence (P14416 whole entry): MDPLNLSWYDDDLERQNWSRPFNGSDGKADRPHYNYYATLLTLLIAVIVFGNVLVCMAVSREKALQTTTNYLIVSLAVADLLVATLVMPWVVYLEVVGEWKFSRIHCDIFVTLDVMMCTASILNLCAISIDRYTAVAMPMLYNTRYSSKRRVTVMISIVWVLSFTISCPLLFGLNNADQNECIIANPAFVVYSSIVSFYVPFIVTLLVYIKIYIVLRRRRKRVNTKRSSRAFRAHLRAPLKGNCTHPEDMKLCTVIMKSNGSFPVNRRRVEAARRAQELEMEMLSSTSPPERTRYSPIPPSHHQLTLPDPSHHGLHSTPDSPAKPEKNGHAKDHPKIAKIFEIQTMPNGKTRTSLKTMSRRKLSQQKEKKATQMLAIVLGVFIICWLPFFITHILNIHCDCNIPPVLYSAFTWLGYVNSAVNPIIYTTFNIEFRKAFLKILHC

With `Oc1cc2c(cc1O)[C@H]1c3ccccc3CN[C@@H]1CC2` (stereo in doubt; (+)-2), the K0.5 in assay [1] turned out to be 5.6 nM; in assay [2] it was 87.7 nM. For the same compound, the Stimulation in the assay listed under Rattus norvegicus is 105%.

In the case of `CN1Cc2ccccc2[C@@H]2c3cccc4[nH]cc(c34)C[C@H]21`, in assay [3], the pD2 was 6.1.

The compound `Oc1cc2c(cc1O)[C@H]1c3ccccc3CN[C@@H]1CC2` (stereo in doubt; (-)-2) came in with a K0.5 in assay [1] of 149 nM.

`Oc1cc2c(cc1O)[C@H]1c3ccccc3CN[C@@H]1CC2` (racemic) had a K0.5 in assay [1] of 11.6 nM. In the assay filed under Rattus norvegicus, the Stimulation stood at 95%.

Source of the values: ChEMBL document CHEMBL1127850.
